Data on six molecules can be found in PubChem BioAssay (NCI).

Holding throughout (assay): NCI-60 cell line screen, 48 h
Assay [1] relates to ACHN renal.
Assay [2] concerns PC-3 prostate.
In assay [3] the test system is OVCAR-5 ovarian.
For assay [4], the system named is NCI-H460 lung.
Assay [5] has as its system OVCAR-3 ovarian.
Assay [6] has as its system SNB-75 CNS.
The subject of assay [7] is MOLT-4 leukemia.
Assay [8] concerns HOP-62 NSCLC.
The test system of assay [9] is MDA-MB-435.
Assay [10] deals with CCRF-CEM leukemia.

SMILES strings stand for the structures.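 Assay format: 96-well plates, 48-hour exposure. The concentration for 50% growth inhibition is given as GI50. At the TGI there is no net growth.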

Regarding `CN(C)CCCN(CCC1CCCCC1)CCC1CCCCC1`, the GI50 in assay [1] is 4140 nM; in [2], 4470 nM; in [3] it was 2700 nM; in assay [4], 1790 nM; in [5], 2110 nM; in assay [6], 1800 nM. For the same molecule, the GI50 in assay [7] is 1850 nM; in [8] it was 6060 nM; in [9] it was 1350 nM; in assay [10] it was 1720 nM. Also, the TGI in assay [1] worked out at 14400 nM; in assay [2], 17900 nM; in assay [3], 7970 nM; in [4], 3450 nM; in assay [5], 5630 nM; in assay [6], 6500 nM. Moreover, the TGI amounted to 7930 nM in [7], 16300 nM in assay [8], 3030 nM in assay [9] and 6380 nM in assay [10].

In the case of `Nc1c(C(=O)Nc2ccccc2)sc2nc3c(cc12)CCCCC3`, the GI50 in assay [1] was 998 nM; in assay [2] it was 547 nM; in [3] it was 1060 nM; in [4] it was 460 nM; in assay [5], 415 nM; in [6], 378 nM. The GI50 in assay [7] was 2670 nM; in assay [8] it was 880 nM; in assay [9], 205 nM; in assay [10], 410 nM. The TGI in assay [1] was > 100000 nM; in assay [2], > 100000 nM; in assay [3] it was > 100000 nM; in [4] it was > 100000 nM; in [5], 2070 nM; in assay [6], 2910 nM. The TGI was > 100000 nM in assay [7], 13900 nM in assay [8], 522 nM in [9] and > 100000 nM in [10].

`COc1cc2c3cc1Oc1c(OC)c(OC)cc4c1C(=NCC4)Cc1ccc(cc1)Oc1cc(ccc1O)C[C@H]3N(C)CC2`: the TGI is 83500 nM in assay [1]; 42500 nM in assay [2]; > 100000 nM in [3]; 39900 nM in assay [4]; 39400 nM in assay [5]; 40200 nM in assay [6]. Moreover, the TGI in [7] was 66200 nM; in assay [8], 44700 nM; in assay [9], 37300 nM; in assay [10] it was > 100000 nM.

With `CCCCC(CCCCCC(CCCC)NCc1ccc2c(c1)OCO2)NCc1ccc2c(c1)OCO2` (stereo not given), the GI50 in assay [1] was 1170 nM; in assay [2], 1010 nM; in assay [3], 1660 nM; in [4], 236 nM; in [5] it was 936 nM; in [6], 1460 nM. Further, the GI50 in assay [7] was 262 nM; in assay [8], 836 nM; in assay [9], 199 nM; in [10], 524 nM. The TGI in [1] was 2400 nM; in [2], 2530 nM; in assay [3], 3080 nM; in [4], 519 nM; in assay [5] it was 2250 nM; in assay [6], 2780 nM. Also, the TGI was determined as 653 nM in assay [7], 2130 nM in assay [8], 398 nM in assay [9] and 2580 nM in assay [10].

For the molecule `Cc1ccc2oc(=O)cc(/C(=C3/C=CC=N3)c3ccc[nH]3)c2c1`, the GI50 in assay [1] was 694 nM; in assay [2], 274 nM; in [3] it was 901 nM; in [4], 353 nM; in assay [5], 271 nM; in assay [6], 335 nM. Besides, the GI50 in [7] is 378 nM; in [8], 533 nM; in assay [9], 211 nM; in [10], 290 nM. Besides, the TGI is 8560 nM in assay [1]; 1540 nM in assay [2]; 12700 nM in [3]; 3520 nM in assay [4]; 707 nM in assay [5]; 4460 nM in [6]. The TGI in assay [7] came out at 2140 nM; in assay [8], 5530 nM; in [9], 544 nM; in [10], 4010 nM.

Take `O=C(CCl)NCCNc1nccc(Nc2ccc(S(=O)(=O)Nc3ccccn3)cc2)n1`: the GI50 in assay [1] is 2600 nM; in [2], 2500 nM; in [3] it was 2280 nM; in assay [4], 2390 nM; in assay [5], 1770 nM; in assay [6], 2840 nM. Also, the GI50 in assay [7] was 1910 nM; in assay [8], 2170 nM; in assay [9], 1960 nM; in [10], 2190 nM. The TGI in assay [1] was determined as 10800 nM; in [2] it was 7450 nM; in assay [3], 5100 nM; in assay [4], 7220 nM; in assay [5] it was 6170 nM; in assay [6] it was 13300 nM. Moreover, the TGI was found to be 11900 nM in [7], 5460 nM in assay [8], 7130 nM in assay [9] and 9030 nM in [10].
